Measured values as given in patent publication US6900206B2, “Indole, azaindole and related heterocyclic sulfonylureido piperazine derivatives” (priority 2002, dated 2005).

Test system: HIV-1 single-round infectious reporter virus
Assay: microbe, parasite or virus in culture
Format: cell-based
Details: Human immunodeficiency virus 1, HeLa, 72 h, read-out: EC50 Group from Table 1
Procedure: • Virus production—Human embryonic Kidney cell line, 293T, was propagated in Dulbecco's Modified Eagle Medium (Invitrogen, Carlsbad, Calif.) containing 10% fetal Bovine serum (FBS, Sigma, St. Louis, Mo.). • Virus infection—Human epithelial cell line, HeLa, expressing the HIV-1 receptor CD4 was propagated in Dulbecco's Modified Eagle Medium (Invitrogen, Carlsbad, Calif.) containing 10% fetal Bovine serum (FBS, Sigma, St. Louis, Mo.) and supplemented with 0.2 mg/mL Geneticin (Invitrogen, Carlsbad, Calif.). Virus—Single-round infectious reporter virus was produced by co-transfecting human embryonic Kidney 293 cells with an HIV-1 envelope DNA expression vector and a proviral cDNA containing an envelope deletion mutation and the luciferase reporter gene inserted in place of HIV-1 nef sequences (Chen et al, Ref. 41). Transfections were performed using lipofectAMINE PLUS reagent as described by the manufacturer (Invitrogen, Carlsbad, Calif.). Experiment • 1. HeLa CD4 cells were plated in 96 well plates at a cell density of 1×10^4 cells per well in 100 μl Dulbecco's Modified Eagle Medium containing 10% fetal Bovine serum and incubated overnight. • 2. Compound was added in a 2 μl dimethylsulfoxide solution, so that the final assay concentration would be ≦10 μM. • 3. 100 μl of single-round infectious reporter virus in Dulbecco's Modified Eagle Medium was then added to the plated cells and compound at an approximate multiplicity of infection (MOI) of 0.01, resulting in a final volume of 200 μl per well. • 4. Virally-infected cells were incubated at 37 degrees Celsius, in a CO2 incubator, and harvested 72 h after infection. • 5. Viral infection was monitored by measuring luciferase expression from viral DNA in the infected cells using a luciferase reporter gene assay kit, as described by the manufacturer (Roche Molecular Biochemicals, Indianapolis, Ind.). Infected cell supernatants were removed and 50 μl of lysis buffer was added per well. After 15 minutes, 50 μl of freshly-reconstituted luciferase assay reagent was added per well. Luciferase activity was then quantified by measuring luminescence using a Wallac microbeta scintillation counter. • 6. […] An EC50 provides a method for comparing the antiviral potency of the compounds of this invention. The effective concentration for fifty percent inhibition (EC50) was calculated with the Microsoft Excel Xlfit curve fitting software. For each compound, curves were generated from percent inhibition calculated at 10 different concentrations by using a four paramenter logistic model (model 205). Table 1 is the key for the data in Table 2. Results

Question: For CNC(=O)c1ccc(F)c2c(C(=O)C(=O)N3CCN(S(=O)(=O)Nc4ccccc4)CC3)c[nH]c12 [Example 2], which EC50 is on record?
Answer: Its EC50 is 1 to 5 µM.

Question: Which EC50 does the source give for CNC(=O)c1ccc(F)c2c(C(=O)C(=O)N3CCN(S(=O)(=O)N(C)C)CC3)c[nH]c12 [Example 1] here?
Answer: Its EC50 is less than 1 µM.

Question: Which EC50 does the source give for CCN(CC)S(=O)(=O)N1CCN(C(=O)C(=O)c2c[nH]c3c(C(=O)NC)ccc(F)c23)CC1 [Example 11] here?
Answer: The EC50 was 1 to 5 µM.

Question: For CNC(=O)c1ccc(F)c2c(C(=O)C(=O)N3CCN(S(=O)(=O)N4CCCCC4)CC3)c[nH]c12 [Example 9], which EC50 is on record?
Answer: Its EC50 is 1 to 5 µM.

Question: CNC(=O)c1ccc(F)c2c(C(=O)C(=O)N3CCN(S(=O)(=O)NC)CC3)c[nH]c12 [Example 4] was tested. Which EC50 did it give?
Answer: Its EC50 is greater than 5 µM.

Question: How did the EC50 turn out when CNC(=O)c1ccc(F)c2c(C(=O)C(=O)N3CCN(S(=O)(=O)N4CCOCC4)CC3)c[nH]c12 [Example 3] was run?
Answer: The EC50 was greater than 5 µM.

Question: Which EC50 does the source give for COC(=O)c1ccc(F)c2c(C(=O)C(=O)N3CCN(S(=O)(=O)N(C)C)CC3)c[nH]c12 [Example 5] here?
Answer: The EC50 was greater than 5 µM.

Question: How did the EC50 turn out when CNC(=O)c1ccc(F)c2c(C(=O)C(=O)N3CCN(S(=O)(=O)N4CCC4)CC3)c[nH]c12 [Example 10] was run?
Answer: Its EC50 is greater than 5 µM.

Question: With CN(C)S(=O)(=O)N1CCN(C(=O)C(=O)c2c[nH]c3c(-n4cncn4)ncc(F)c23)CC1 [Example 12] as the compound, how does the EC50 read?
Answer: Its EC50 is less than 1 µM.

Question: For COC(=O)c1ccc(F)c2c(C(=O)C(=O)N3CCN(S(=O)(=O)N4CCC4)CC3)c[nH]c12 [Example 6], which EC50 is on record?
Answer: The EC50 was greater than 5 µM.

Question: Which EC50 does the source give for CCN(CC)S(=O)(=O)N1CCN(C(=O)C(=O)c2c[nH]c3c(C(=O)OC)ccc(F)c23)CC1 [Example 8] here?
Answer: The EC50 was 1 to 5 µM.

Question: Which EC50 does the source give for COC(=O)c1ccc(F)c2c(C(=O)C(=O)N3CCN(S(=O)(=O)N4CCCCC4)CC3)c[nH]c12 [Example 7] here?
Answer: The EC50 was 1 to 5 µM.
